From US12679839B2, “Cyclin-dependent kinase 7 (CDK7) non-covalent inhibitors” (JANSSEN PHARMACEUTICA NV, priority 2020, dated 2026) come the findings set out here.

Experiment [1] has as its target T1, CDK7/Cyclin H/MAT-1 complex (Homo sapiens, UniProt P50613).
T1 construct: Human CDK7 (amino acids 1-346); His6 (N); TEV protease cleavage site (N); made in house; host or cells: baculovirus-SF9 insect cells
Kind of experiment: Absorbance kinetic assay (20 nM CDK7/Cyclin H/MAT-1 complex). Particulars: for IC50: read-out: CDK7 (20 nM) pIC50 (converted). The experiment is classed as biochemical. As for the experimental part: Human CDK7 (amino acids 1-346) containing an N-terminal His6-tag followed by a tobacco etch virus (TEV) protease cleavage site, human MAT1 (amino acids 1-309) and human cyclin H (amino acids 1-323) were co-expressed in the baculovirus-SF9 insect cell expression system to generate a trimeric complex. Cell pellets were collected 72 h post-infection and were resuspended by Dounce homogenization in 20 mM Hepes-NaOH (pH 8.0), 300 mM NaCl, 10% glycerol, 2 mM dithiothreitol DTT), and 20 mM Imidazole supplemented with cOmplete™ Protease Inhibitor Cocktail (Roche) and 25 U/mL Benzonase® Nuclease HC according to the manufacturer's instructions. Cells were lysed by passing through a Microfluidics M110Y Microfluidizer 3 times at 600 kPa followed by centrifugation at 38,000×g at 4° C. for 1 hour. The supernatant was loaded onto a pre-equilibrated HisTrap HP column and eluted in 20 mM Hepes-NaOH (pH 8.0), 50 mM NaCl, 10% glycerol, 2 mM DTT, and 400 mM Imidazole. The eluate was further purified by gel filtration on a Superdex S200 16/60 column and eluted with 20 mM Hepes-NaOH (pH 7.5), 50 mM NaCl, 10% Glycerol, 2 mM DTT. Fractions containing a trimeric complex of CDK7, cyclin H, and MAT1 in a 1:1:1 ratio were pooled and concentrated to 3 mg/mL in a 10 kDa MWCO concentrator, and diluted to a final concentration of 1.6 mg/mL in 11.1 mM Hepes-NaOH (pH 8.0), 27.8 mM NaCl, 1.1 mM DTT and 50% glycerol. […]
Absorbance Kinetic Assay (20 nM CDK7/Cyclin H/MAT-1 Complex)
CDK7 complex catalyzes the ATP-dependent phosphorylation of a peptide substrate CDK7/9-tide that is derived from RNA Pol II to produce phosphorylated peptide and ADP. The kinase reaction product ADP was converted to lactate and NAD^+ in the presence of phosphoenol pyruvate (PEP), NADH and coupling enzymes lactate dehydrogenase (LDH) and pyruvate kinase (PK). CDK7 complex catalytic activity was measured by following the absorbance intensity continuously at 340 nm that corresponds with the depletion of NADH.
Absorbance at 340 nm was followed kinetically at an interval of 2 minutes for 8 hours.
The assay was carried out with 100 μl reaction volume per well in a 384-well plate that was pre-spotted nanoliter volume of compounds by LabCyte Echo 555. Compound dilution plates were made by 2-fold (could vary upon necessity) dilution in DMSO for 11 concentrations plus a DMSO control of uninhibited reaction. 2× substrate and coupling reagent mixture was added to the assay plate followed by an addition of an equal volume of 40 nM CDK7/Cyclin H/MAT-1 complex. After mixing, assay plates were spun at 2000 rpm for 3 minutes and then transferred to the plate reader for data collection.
For reversible inhibitors, the absorbance reaction progress curves were linear. The steady-state rate was derived from the slope of the linear curves. The following equation is applied to determine percent inhibition.
[formula] • νo=max rate (uninhibited rate) • νi=inhibited rate
The IC50 value is calculated by the following equation:
[formula] where νo is the rate in the absence of inhibitor, νmin is the rate at highest inhibitor concentration, and h is the Hill coefficient. Flint Assay (5 nM CDK7/Cyclin H/MAT-1 Complex)

Experiment [2] relates to RNA polymerase II Serine 5 phosphorylation (Rpb1 CTD), downstream substrate of CDK7. Kind of experiment: Imaging-based cellular RNA PolII Ser5 phosphorylation assay in A549 cells. The format is cell-based, human. Particulars: Homo sapiens, A549, 3 h, challenged with compound for 3 hours, read-out: pRNA polII Ser5 (A549) pIC50 (converted). From the text: Dosing curves were fitted using the following equation to obtain IC50: Y=Bottom+(Top−Bottom)/(1+10^((log IC50−X)*Hill slope)) where X=log10 of the compound concentration; top and bottom can be defined by PC and NC respectively. Imaging-Based Cellular RNA PolII Ser5 Phosphorylation Assay
To evaluate inhibition of CDK7 kinase activity, a 384-well automated imaging assay was used. This assay detects Serine 5 phosphorylation on a unique heptapeptide sequence in the C-terminal domain of Rpb1 subunit of RNA polymerase II, the downstream substrate of CDK7. This heptapeptide sequence is repeated up to 52 times in the CTD of Rpb1.
A549 adenocarcinoma human alveolar basal epithelial cells (ATCC, CCL-185), rabbit Phospho-Rpb1 CTD (Ser5) antibody (D9N51 (Cell Signaling Technology)), DMEM (Sigma), Fetal Bovine Serum (Biowest), L-glutamine (Sigma), Penicillin/Streptomycin (Life Technologies), Sodium Pyruvate (Sigma), Hepes (Sigma), poly-D-lysine coated μclear 384 black plates (Greiner), formaldehyde (PolySciences), D-PBS (Sigma), Methanol (Sigma), Alexa Fluor 488 goat anti rabbit IgG secondary antibody (Life Technologies), HCS CellMask™ Deep Red stain (Life Technologies), Hoechst 33258 (Invitrogen).
RNA Polymerase II Serine 5 phosphorylation was detected using a specific rabbit Phospho-Rpb1 CTD (Ser5) antibody. A549 adenocarcinoma human alveolar basal epithelial cells were seeded in 20 μl medium (DMEM supplemented with 1% Fetal Bovine Serum (heat inactivated 30′ 56° C.), 2 mM L-glutamine, 50 U/ml penicillin 50 μg/ml streptomycin, 1 mM sodium pyruvate and 50 mM hepes) at 1000 cells/well and cultured in poly-D-lysine coated μclear 384 black plates for 20 hours at 37° C. and 5% CO2.
After incubation cells were challenged with compound for 3 hours at 37° C. and 5% CO2. DMSO was used as high control and as low control 10 μM of LDC4297 reference compound was used. 40 nl of test compounds and controls were spotted in cell plates using Echo Liquid Handler (Echo 550, Labcyte). Incubation was followed by 20 minutes fixation with 20 μl 10% formaldehyde at room temperature. Medium/formaldehyde solution was removed, plates were washed 3 times with 30 μl D-PBS (w/o Ca^2+ and Ma^2+) and permeabilization was done by adding 20 μl ice cold methanol for 20 minutes. Cells were washed again 3 times with 30 μl D-PBS and 20 μl blocking buffer (25 ml fetal bovine serum in 500 ml D-PBS) was added for 1 hour.
After removing blocking buffer 20 μl 1/1000 primary antibody rabbit. Phospho-Rpb1 CTD (Ser5) antibody was added which binds to the phosphorylated Serine5 of the heptapeptide sequences in the CTD of Rpb1. Primary antibody was removed, and plates were washed 3 times with 30 μl D-PBS followed by addition of 20 μl 1/2000 Alexa Fluor 488 goat anti rabbit IgG secondary antibody for final detection of Phospho-Rpb1 CTD (Ser5) together with 1/5000 HCS CellMask™ Deep Red stain for membrane staining and 1/5000 Hoechst 33258 for nucleus staining. Last, plates were washed 2 times with 30 μl D-PBS and wells were filled with 40 μL D-PBS, plates were sealed (Thermowell sealing tape) and stored at 4° C. until reading. Plates were read with Opera Phenix (Perkin Elmer) with 10× air objective. Data were calculated and analyzed in Phaedra.
IC50 values were calculated using the following formula:
Average value of all HC's and all LC's are used for normalizations. % Effect=100−(sample−LC)/(HC−LC)×100% Control=(sample/HC)×100
A best-fit curve is fitted by a minimum sum of squares method to the plot of % Control vs. compound concentration. From this an IC50 value can be obtained. An estimate of the slope of the plot in terms of the Hill coefficient is also obtained.

T1 sequence (P50613 whole entry, the tested form may be a part): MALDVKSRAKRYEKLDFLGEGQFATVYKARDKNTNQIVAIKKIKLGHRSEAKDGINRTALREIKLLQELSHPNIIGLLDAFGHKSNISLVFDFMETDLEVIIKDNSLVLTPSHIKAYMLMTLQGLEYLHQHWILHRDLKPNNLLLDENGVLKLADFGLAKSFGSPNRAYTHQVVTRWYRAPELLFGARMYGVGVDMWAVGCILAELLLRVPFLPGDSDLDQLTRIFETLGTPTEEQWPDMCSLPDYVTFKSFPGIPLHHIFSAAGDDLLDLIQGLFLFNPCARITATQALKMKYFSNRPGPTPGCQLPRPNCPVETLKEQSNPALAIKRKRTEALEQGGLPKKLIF
T1 sequence (P51946 whole entry partner, the tested form may be a part): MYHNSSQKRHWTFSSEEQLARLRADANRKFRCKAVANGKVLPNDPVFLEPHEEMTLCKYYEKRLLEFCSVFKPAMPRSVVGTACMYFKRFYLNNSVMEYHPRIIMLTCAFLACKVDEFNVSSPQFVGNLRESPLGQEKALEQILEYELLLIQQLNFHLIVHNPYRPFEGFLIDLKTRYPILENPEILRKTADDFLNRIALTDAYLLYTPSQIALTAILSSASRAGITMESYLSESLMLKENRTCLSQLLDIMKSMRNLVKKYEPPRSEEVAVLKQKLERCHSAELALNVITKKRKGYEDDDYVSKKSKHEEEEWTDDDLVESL
T1 sequence (P51948 whole entry partner, the tested form may be a part): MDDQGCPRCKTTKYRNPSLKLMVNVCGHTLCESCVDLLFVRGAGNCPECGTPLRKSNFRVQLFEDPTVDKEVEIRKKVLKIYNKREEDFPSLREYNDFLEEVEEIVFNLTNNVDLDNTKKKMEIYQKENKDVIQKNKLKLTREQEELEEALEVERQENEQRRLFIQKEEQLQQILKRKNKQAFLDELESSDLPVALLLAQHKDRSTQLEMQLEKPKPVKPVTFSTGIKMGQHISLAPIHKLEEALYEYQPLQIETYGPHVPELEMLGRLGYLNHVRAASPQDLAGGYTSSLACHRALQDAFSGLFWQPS

In the case of `C[C@@H]1CN(C(=O)[C@H]2CCN(C)C[C@@H]2c2ccccc2)[C@H](C)c2nc(NC3CCOCC3)ncc21` (relative stereo) [Compound 182], the figures for the IC50 in experiment [1] and in experiment [2] were 0.724 µM and 4.27 µM, respectively.

In the case of `C[C@@H]1c2nc(NC3CCOCC3)ncc2CCN1C(=O)[C@H]1CCN(C)C[C@@H]1c1ccccc1` (relative stereo) [Compound 183], the IC50 in experiment [1] and in experiment [2] was over 10 µM each time.

Regarding `C[C@H]1c2nc(NC3CCOCC3)ncc2CCN1C(=O)[C@H]1CCN(C)C[C@@H]1c1ccccc1` (relative stereo) [Compound 184], the IC50 is 0.0257 µM in experiment [1] and 0.537 µM in experiment [2].

Take `CC[C@@H]1Cc2cnc(NC3CCOCC3)nc2CN1C(=O)[C@H]1CCN(C)C[C@@H]1c1ccccc1` (relative stereo) [Compound 185]: the IC50 in experiment [1] is 0.0427 µM; in experiment [2], 0.724 µM.

In the case of `CC[C@H]1Cc2cnc(NC3CCOCC3)nc2CN1C(=O)[C@H]1CCN(C)C[C@@H]1c1ccccc1` (relative stereo) [Compound 186], the IC50 in experiment [1] and in experiment [2] was over 10 µM each time.

Consider `C[C@H]1CN(C(=O)[C@H]2CCN(C)C[C@@H]2c2ccccc2)Cc2nc(NC3CCOCC3)ncc21` (relative stereo) [Compound 187], for which the IC50 in experiment [1] and in experiment [2] was over 10 µM each time.

Regarding `C[C@@H]1Cc2cnc(NCc3ccn(C)n3)nc2[C@@H](C)N1C(=O)[C@H]1CCN(C)C[C@@H]1c1ccccc1` (relative stereo) [Compound 197], the figures for the IC50 in experiment [1] and in experiment [2] were 0.776 µM and 2.82 µM, respectively.

Regarding `Cc1cccc([C@@H]2CN(C)CC[C@H]2C(=O)N2Cc3nc(Nc4cnn(C)c4)ncc3[C@@H]3C[C@@H]32)c1` (relative stereo) [Compound 202], the IC50 in experiment [1] was 2.34 µM; in experiment [2], 6.92 µM.

In the case of `C[C@@H]1Cc2cnc(NC3CCOCC3)nc2CN1C(=O)[C@H]1CCN(C)C[C@@H]1c1ccc(F)cc1` (single isomer, unassigned) [Compound 92b], in experiment [1], the “CDK7 (20 nM) pIC50” value was found to be 7.92. Besides, the IC50 in experiment [2] is about 0.0676 µM.

In the case of `C[C@@H]1Cc2cnc(NC3CCOCC3)nc2CN1C(=O)[C@H]1CCN(C2CC2)C[C@@H]1c1ccccc1` (single isomer, unassigned) [Compound 161], the “CDK7 (20 nM) pIC50” value in experiment [1] is on record as 6.74. Also, the IC50 in experiment [2] was over 10 µM.

For `CC(C)N1CC[C@H](C(=O)N2Cc3nc(NC4CCOCC4)ncc3C[C@H]2C)[C@@H](c2cccc(F)c2)C1` (single isomer, unassigned) [Compound 163], the “CDK7 (20 nM) pIC50” value in experiment [1] amounted to 6.83. Also, the IC50 in experiment [2] is 0.162 µM.

For `CC(C)N1CC[C@@H](C(=O)N2Cc3nc(NC4CCOCC4)ncc3C[C@H]2C)[C@H](c2cccc(F)c2)C1` (single isomer, unassigned) [Compound 164], the “CDK7 (20 nM) pIC50” value in experiment [1] stood at 6.06. For the same compound, the IC50 in experiment [2] was 4.07 µM.

Take `CC(C)N1CC[C@@H](C(=O)N2Cc3nc(NC4CCOCC4)ncc3C[C@H]2C)[C@H](c2ccc(Cl)c(F)c2)C1` (single isomer, unassigned) [Compound 165]: the “CDK7 (20 nM) pIC50” value in experiment [1] came out at 6.10. Besides, the IC50 in experiment [2] was 3.24 µM.

Turning to `C[C@@H]1Cc2cnc(NC3CCOCC3)nc2[C@@H](C)N1C(=O)[C@H]1CCN(C)C[C@@H]1c1ccccc1` (single isomer, unassigned) [Compound 195a], the IC50 was 4.68 µM in experiment [1] and over 10 µM in experiment [2].

Consider `CO[C@]1(C)CC[C@H](Nc2ncc3c(n2)CN(C(=O)[C@H]2CCN(C)C[C@@H]2c2ccccc2)[C@H](C)C3)CC1` [Compound 11], for which the results for the IC50 in experiment [1] and in experiment [2] were 0.0138 µM and 1.35 µM, respectively.

`C[C@@H]1Cc2cnc(N[C@H]3CC[C@@H](C)CC3)nc2CN1C(=O)[C@H]1CCN(C)C[C@@H]1c1ccccc1` [Compound 14]: in experiment [1], the “CDK7 (20 nM) pIC50” value worked out at 7.89. Moreover, the IC50 in experiment [2] is 0.479 µM.

For the compound `C[C@@H]1Cc2cnc(N[C@H](C)c3ccccn3)nc2CN1C(=O)[C@H]1CCN(C)C[C@@H]1c1ccccc1` [Compound 21], the “CDK7 (20 nM) pIC50” value in experiment [1] stood at 7.97. In addition, the IC50 in experiment [2] was 0.302 µM.

With `C[C@H](Nc1ncc2c(n1)CN(C(=O)[C@H]1CCN(C)C[C@@H]1c1ccccc1)[C@H](C)C2)c1ccccc1` [Compound 23], the “CDK7 (20 nM) pIC50” value in experiment [1] amounted to 7.97. Moreover, the IC50 in experiment [2] is 0.302 µM.

`C[C@@H]1Cc2cnc(NC3CC(C)(C)OC(C)(C)C3)nc2CN1C(=O)[C@H]1CCN(C)C[C@@H]1c1ccccc1` [Compound 24]: the “CDK7 (20 nM) pIC50” value in experiment [1] turned out to be 7.96. In experiment [2], the IC50 is 0.126 µM.

As to `C[C@@H]1Cc2cnc(NC3CCN(C4COC4)CC3)nc2CN1C(=O)[C@H]1CCN(C)C[C@@H]1c1ccccc1` [Compound 25], the “CDK7 (20 nM) pIC50” value in experiment [1] turned out to be 7.46. For the same compound, the IC50 in experiment [2] was 0.776 µM.

`C[C@@H]1Cc2cnc(NCC3CCOC3)nc2CN1C(=O)[C@H]1CCN(C)C[C@@H]1c1ccccc1` (some centres unmarked) [Compound 26]: the “CDK7 (20 nM) pIC50” value in experiment [1] turned out to be 7.85. Moreover, in experiment [2], the IC50 was 0.302 µM.

For `Cc1ccc(CNc2ncc3c(n2)CN(C(=O)[C@H]2CCN(C)C[C@@H]2c2ccccc2)[C@H](C)C3)cn1` [Compound 27], the “CDK7 (20 nM) pIC50” value in experiment [1] is recorded as 7.50. For the same compound, the IC50 in experiment [2] is 2.09 µM.
